Measured values published in patent publication US8247401B2, “P2X3 receptor antagonists for treatment of pain” (Merck Sharp & Dohme Corp., priority 2007, dated 2012).

These compounds were tested against T1, human P2X3 (Homo sapiens, UniProt P56373) (assay: Intracellular Calcium Measurement to Assess Antagonist Affinity (FLIPR, Fluo-4)). Details: Intracellular Calcium Measurement assay; agonist α,β-meATP at EC50.
T1 construct: expressed in transfected cells
T1 sequence (P56373 1-397): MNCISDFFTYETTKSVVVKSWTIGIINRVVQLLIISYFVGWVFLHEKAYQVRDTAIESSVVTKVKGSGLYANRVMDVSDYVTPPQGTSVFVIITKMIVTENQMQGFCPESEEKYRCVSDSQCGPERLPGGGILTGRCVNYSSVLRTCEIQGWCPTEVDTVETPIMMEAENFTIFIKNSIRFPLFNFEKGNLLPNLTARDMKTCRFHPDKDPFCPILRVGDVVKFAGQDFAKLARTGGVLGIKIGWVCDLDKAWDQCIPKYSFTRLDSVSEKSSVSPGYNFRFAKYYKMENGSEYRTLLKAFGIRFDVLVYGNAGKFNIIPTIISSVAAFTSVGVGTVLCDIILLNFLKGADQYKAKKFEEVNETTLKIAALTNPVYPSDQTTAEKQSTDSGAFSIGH
Format: cell-based
Description: Generation of a Human P2X3 and P2X2/3 Stable Cell Line—Human P2X3 receptor cDNA (Accession number NM_002559) was subcloned as a 5′XhoI and 3′HindIII fragment into the expression vector pcDNA5/FRT (Invitrogen). Human P2X2 receptor cDNA (Accession number NM_174873) was subcloned as a 5′EcoRI and 3′NotI fragment into the expression vector pIRESneo2 (BD Biosciences Clontech). The human P2X3 expression construct was transfected using Lipofectamine 2000 (Invitrogen) into Flp-in—293 cells (Invitrogen) according to the manufacturer's directions. Cells positive for flp-mediated recombination of […] P2X3 were selected using 150 μg/ml hygromycin. The stable human P2X3 cell line was co-transfected with the human P2X2 expression construct using Lipofectamine 2000 as above and co-transfected cells selected using […] hygromycin and 1 mg/ml G418. The stable P2X3 cell line was propagated in DMEM, 10% FBS, 100 μg/ml hygromycin, and 100 units/ml penicillin and 100 μg/ml streptomycin, and maintained at 37° and 95% humidity. The stable P2X2/3 cell line was propagated as above with the addition of 500 μg/ml G418.
Intracellular Calcium Measurement to Assess Antagonist Affinity—A fluorescent imaging plate reader (FLIPR; Molecular Devices) was used to monitor intracellular calcium levels using the calcium-chelating dye Fluo-4 (Molecular Probes). The excitation and emission wavelengths used to monitor fluorescence were 488 nm and 530 nm, respectively. Cells expressing either human P2X3 or human P2X2/3 were plated at a density of 20,000 cells/well (20 μl/well) in 384-well black-walled plates approximately 20 hours before beginning the assay. On the day of the assay 20 μl of loading buffer (Hank's balanced salt solution, 2.5 mM CaCl2, 20 mM HEPES, 0.1% BSA, 2.5 mM probenecid, TR-40, Fluo-4, and 138 mM NMDG substituted for NaCl) is added and cells dye-loaded for 60 min in the dark at room temperature. Ten minutes prior to adding agonist, the antagonist was added in a volume of 10 μl and allowed to incubate at room temperature. During this period fluorescence data is collected at 3 sec intervals followed by 10 sec intervals. The agonist, α,β-meATP, is added at a 6× concentration ([α,β-meATP]final=EC50). Following agonist addition fluorescence was measured at 5 sec intervals and analyzed based on the increase in peak relative fluorescence units (RFU) compared to the basal fluorescence. Peak fluorescence was used to determine the inhibitory effect at each concentration of antagonist by the following equation: % Inhibition=100*(1−((RFU(drug)−RFU(control))/(RFU(DMSO only)−RFU(control)))) In vitro Electrophysiological Assay—Cells expressing human P2X3 receptors were grown to a confluence of 65-85% 20 to 32 hours prior to assay. […]

| IC50 | SMILES |
| --- | --- |
| 11 nM | Cc1ccc(-c2cc(C(=O)N[C@H](C)c3ncc(F)cc3F)cc(-c3nnc(C4CC4)n3C)c2)nc1 [Example 4.3] |
| 26 nM | C[C@@H](NC(=O)c1cc(-c2ccc(Cl)cn2)cc(C(C)(C)O)c1)c1ccc(C(F)(F)F)[n+]([O-])c1 [Example 4.539, 3-(5-Chloropyridin-2-yl)-5-(1-hydroxy-1-methylethyl)-N-{(1R)-1-[1-oxido-6-(trifluoromethyl)pyridin-3-yl]-ethyl}benzamide] |
| 8 nM | Cc1ccc(-c2cc(C(=O)N[C@H](C)c3ccc(F)cn3)cc(-c3ncccc3F)c2)nc1 [Example 4.252, 3-(3-Fluoropyridin-2-yl)-N-[(1R)-1-(5-fluoropyridin-2-yl)ethyl]-5-(5-methylpyridin-2-yl)benzamide] |
| 20 nM | Cc1ccc(-c2cc(C(=O)NC(C)c3nnc[nH]3)cc(N3CCOCC3)c2)c(F)c1 (stereo in doubt) [Example 4.109, 2′-Fluoro-4′-methyl-5-morpholin-4-yl-N-[(1R)-1-(1H-1,2,4-triazol-3-yl)ethyl]biphenyl-3-carboxamide] |
